Assay results from patent publication EP0357369B1, “The use of asymetric membranes in delivery devices” (priority 1988, dated 1990).
≈ marks a conversion by molar mass, not a printed value. Read-outs that look alike come from different tables or passages of the source.

Key:
[1] = Drug solubility in receptor solutions and excipient solutions; type: physicochemical
[2] = Osmotic pressure of saturated solutions of drug and excipients; type: physicochemical; conditions: saturated solution of the labelled drug or of drug and the other tablet excipients; also printed as about 3 atm

SMILES: COc1cc2nc(N3CCN(C(=O)C4COc5ccccc5O4)CC3)nc(N)c2cc1OC (centres unmarked) [doxazosin]
- solubility ([1]; aqueous buffer, gastric buffer pH 1.5, read-out: Doxazosin solubility in the gastric buffer): ~250 µg/mL (≈ 0.554 mM)
- solubility ([1]; aqueous buffer, intestinal buffer pH 7.5, read-out: Doxazosin solubility in the intestinal buffer): < 10 µg/mL
- solubility ([1]; dextrose solutions adjusted to pH 4 with tartaric acid, read-out: doxazosin solubility in all the dextrose solutions): ~10000 µg/mL (≈ 22.1 mM)
- solubility ([1]; water, same in lactose and dextrose solutions adjusted to pH 4 with tartaric acid, read-out: doxazosin solubility in water): 10000 µg/mL (≈ 22.1 mM)

SMILES: COc1cc2c(N)nc(N3CCN(C(=O)OCC(C)(C)O)CC3)nc2c(OC)c1OC [trimazosin]
- Trimazosin solubility lower in a saturated calcium lactate solution than in water [1]: about 40%
- solubility of trimazosin in the magnesium sulfate solution ([1]; 2.4-wt% magnesium sulfate solution compared with water): the same as the trimazosin solubility in water
- solubility of trimazosin ([1]; water and 4 wt% magnesium sulfate solution): the same in both solutions
- osmotic pressure of a saturated solution [2]: about 304 kPa
